Laboratory results reported in patent US12588678B2, “Oxazoline compound, synthesis method therefor and application thereof” (NANKAI UNIVERSITY, priority 2019, dated 2026).
Several values for one entry are separate records, joined by “and”; a condition that tells them apart may be missing. Equal entries are not always repeated.

Assays:
[1] = system: Tetranychus cinnabarinus mite larvae; assay: Larvicidal activity test, dipping method on bean seedling leaves; format: in vivo; details: for mortality at 10 µg/mL / mortality at 100 µg/mL / mortality at 200 µg/mL / mortality at 0.01 µg/mL / mortality at 0.05 µg/mL / mortality at 0.1 µg/mL / mortality at 0.5 µg/mL / mortality at 1 µg/mL / mortality at 0.001 µg/mL: Tetranychus cinnabarinus, 96 h; for mortality at 10 µg/mL: read-out: mortality of mite larvae (%), 10 mg/L; for mortality at 100 µg/mL: read-out: mortality of mite larvae (%), 100 mg/L; for mortality at 200 µg/mL: read-out: mortality of mite larvae (%), 200 mg/L; for mortality at 0.01 µg/mL: read-out: mortality of mite larvae (%), 0.01 mg/L; for mortality at 0.05 µg/mL: read-out: mortality of mite larvae (%), 0.05 mg/L; for mortality at 0.1 µg/mL: read-out: mortality of mite larvae (%), 0.1 mg/L; for mortality at 0.5 µg/mL: read-out: mortality of mite larvae (%), 0.5 mg/L; for mortality at 1 µg/mL: read-out: mortality of mite larvae (%), 1 mg/L; for acaricidal activity compared with etoxazole: Tetranychus cinnabarinus eggs and larvae, etoxazole as reference; for mortality at 0.001 µg/mL: read-out: mortality of mite larvae (%), 0.001 mg/L
Excerpt: (§1) The assay examples are used to illustrate the acaricidal activity against Tetranychus cinnabarinus (mortality of mite larvae and mortality of mite eggs) of the compounds having the structure represented by formula (I), and the results are shown in tables 1 to 9, where mortality of mite larvae % =(number of dead mite larvae applied/total number of mite larvae applied)×100, and mortality of mite eggs %= (number of dead mite eggs applied/total number of mite eggs applied)×100.
Tetranychus cinnabarinus bred indoors on bean seedlings was used as a test subject by the dipping method. Move adult mites onto the newly grown complete bean seedling leaves with two leaves, cut off the bean seedlings, place the bean seedlings in a greenhouse with illumination at 25° C. for laying eggs for 24 hours, then remove adult mites and keep mite eggs. And continuously culture in the greenhouse for 5 days until mite eggs hatch into mite larvae (ensuring that the number of the mites on each tested leaf is not less than 60).
Completely immerse the bean seedling leaves containing the mite larvae into the sample solution to be detected with Tween at the prepared concentration for 5-6 seconds by using tweezers, slightly throw off residual liquid, put the bean seedling leaves back to the culture cup, continuously culture for 4 days and check the result. One of the plants was immersed in a solution containing no sample to be tested and the remaining additives were identical to the sample solution as a blank control. Each compound was replicated three times.

[2] = system: Tetranychus cinnabarinus mite eggs; assay: Activity against mite eggs, dipping method on bean seedling leaves; format: in vivo; details: for mortality at 10 µg/mL: read-out: mortality of mite eggs (%), 10 mg/L; for mortality at 10 µg/mL / mortality at 100 µg/mL / mortality at 200 µg/mL / mortality of mite eggs (%) / mortality at 0.01 µg/mL / mortality at 0.05 µg/mL / mortality at 0.5 µg/mL / mortality at 1 µg/mL / mortality at 0.1 µg/mL / mortality at 0.001 µg/mL: checked after 4 days; for mortality at 100 µg/mL: read-out: mortality of mite eggs (%), 100 mg/L; for mortality at 200 µg/mL: read-out: mortality of mite eggs (%), 200 mg/L; for mortality at 0.01 µg/mL: read-out: mortality of mite eggs (%), 0.01 mg/L; for mortality at 0.05 µg/mL: read-out: mortality of mite eggs (%), 0.05 mg/L; for mortality at 0.5 µg/mL: read-out: mortality of mite eggs (%), 0.5 mg/L; for mortality at 1 µg/mL: read-out: mortality of mite eggs (%), 1 mg/L; for mortality at 0.1 µg/mL: read-out: mortality of mite eggs (%), 0.1 mg/L; for mortality at 0.001 µg/mL: read-out: mortality of mite eggs (%), 0.001 mg/L
Excerpt: as §1
Tetranychus cinnabarinus bred indoors on bean seedlings was used as a test subject by the dipping method. Move female adult mites onto the newly grown complete bean seedling leaves with two leaves, cut off the bean seedlings, place the bean seedlings in a greenhouse with illumination at 25° C. for laying eggs for 24 hours, then remove adult mites and keep mite eggs. After continuously culturing in the greenhouse for one day, completely soak the bean seedling leaves containing the acarid eggs into the prepared sample solution to be tested for 5-6 seconds by using tweezers, slightly throw off residual liquid, put the bean seedling leaves back to the culture cup, continuously culture for 4 days and then check the result. One of the plants was immersed in a solution containing no sample to be tested and the remaining additives were identical to the sample solution as a blank control. Each compound was replicated three times.

SMILES | mortality at 10 µg/mL ([1]; checked after 4 days) [%] | mortality at 100 µg/mL ([1]; checked after 4 days) [%] | mortality at 200 µg/mL ([1]; checked after 4 days) [%] | mortality at 10 µg/mL ([2]; Tetranychus cinnabarinus, 96 h) [%] | mortality at 100 µg/mL ([2]; Tetranychus cinnabarinus, 96 h) [%] | mortality at 200 µg/mL ([2]; Tetranychus cinnabarinus, 96 h) [%] | mortality at 0.1 µg/mL ([1]; checked after 4 days) [%] | mortality at 1 µg/mL ([1]; checked after 4 days) [%] | mortality at 1 µg/mL ([2]; Tetranychus cinnabarinus, 96 h) [%] | mortality at 0.1 µg/mL ([2]; Tetranychus cinnabarinus, 96 h) [%] | other results
Fc1cccc(F)c1C1=NC(c2ccc(CN3CCOCC3)cc2)CO1 (stereo not shown) [Compound R1-4] | 30 | 70 | 90 | 50 | 70 | 90 | – | – | – | – | –
CCOc1cc(C(C)(C)C)ccc1C1COC(c2c(F)cccc2F)=N1 (stereo not shown) [Etoxazole, reference compound] | 90 | 100 | 100 | 90 | 100 | 100 | 65 | 80 | 70 | – | mortality of mite larvae (%) ([1]; 10 mg/L, checked after 4 days): 100%; mortality at 0.01 µg/mL ([1]; checked after 4 days): 30%; mortality at 0.05 µg/mL ([1]; checked after 4 days): 30%; mortality at 0.5 µg/mL ([1]; checked after 4 days): 80%; mortality of mite eggs (%) ([2]; 0.1 mg/L): 60%; mortality of mite eggs (%) ([2]; 0.5 mg/L): 60%; mortality of mite eggs (%) ([2]; 10 mg/L): 100% and 95%; LC50 ([2]; Tetranychus cinnabarinus, 96 h, read-out: LC50 (against mite eggs), mite eggs, from regression y = ax + b): 0.128 µg/mL; mortality at 0.01 µg/mL ([2]; Tetranychus cinnabarinus, 96 h): 30%; mortality at 0.05 µg/mL ([2]; Tetranychus cinnabarinus, 96 h): 30%; mortality at 0.5 µg/mL ([2]; Tetranychus cinnabarinus, 96 h): 80%
Fc1cccc(F)c1C1=NC(c2ccc(Cn3ccc4c(F)cccc43)cc2)CO1 (stereo not shown) [Compound R1-20] | 70 | 100 | 100 | 80 | 100 | 100 | – | 45 | 60 | – | –
O=S(=O)(Oc1ccc(C2COC(c3c(F)cccc3F)=N2)cc1)c1ccc(Cl)cc1 (stereo not shown) [Compound R3-8] | 98 | 100 | 100 | 90 | 95 | 100 | 60 | 85 | 70 | – | –
Fc1cccc(F)c1C1=NC(c2ccc(Cn3ccc4ccccc43)cc2)CO1 (stereo not shown) [Compound R1-15] | 90 | 100 | 100 | 100 | 100 | 100 | 65 | 80 | 90 | 80 | acaricidal activity compared with etoxazole [1]: higher acaricidal activity than etoxazole; mortality at 0.01 µg/mL ([1]; checked after 4 days): 35%; mortality at 0.05 µg/mL ([1]; checked after 4 days): 50%; mortality at 0.01 µg/mL ([2]; Tetranychus cinnabarinus, 96 h): 35%; mortality at 0.05 µg/mL ([2]; Tetranychus cinnabarinus, 96 h): 65%
Fc1cccc(F)c1C1=NC(c2ccc(CN3CCCC3)cc2)CO1 (stereo not shown) [Compound R1-1] | – | 50 | 70 | 60 | 70 | 95 | – | – | 30 | – | –
O=S(=O)(Oc1ccc(C2COC(c3c(F)cccc3F)=N2)cc1)c1ccc(I)cc1 (stereo not shown) [Compound R3-10] | 88 | 100 | 100 | 85 | 100 | 100 | – | 65 | 60 | – | –
Fc1cccc(F)c1C1=NC(c2ccc(COCc3cccs3)cc2)CO1 (stereo not shown) [Compound R2-11] | 80 | 100 | 100 | 90 | 100 | 100 | – | 70 | 75 | – | –
CCCOCc1ccc(C2COC(c3c(F)cccc3F)=N2)cc1 (stereo not shown) [Compound R2-3] | 97 | 100 | 100 | 100 | 100 | 100 | 90 | 95 | 100 | 85 | acaricidal activity compared with etoxazole [1]: higher acaricidal activity than etoxazole; mortality at 0.001 µg/mL ([1]; checked after 4 days): 45%; mortality at 0.01 µg/mL ([1]; checked after 4 days): 70%; mortality at 0.5 µg/mL ([1]; checked after 4 days): 91%; larvicidal activity, times that of etoxazole ([1]; relative to etoxazole): 58 times; mortality at 0.001 µg/mL ([2]; Tetranychus cinnabarinus, 96 h): 50%; mortality at 0.01 µg/mL ([2]; Tetranychus cinnabarinus, 96 h): 77%; mortality at 0.5 µg/mL ([2]; Tetranychus cinnabarinus, 96 h): 92%; activity on mite eggs, times that of etoxazole ([2]; relative to etoxazole): 105 times
Fc1cccc(F)c1C1=NC(c2ccc(COCc3ccco3)cc2)CO1 (stereo not shown) [Compound R2-10] | 62 | 80 | 95 | 75 | 100 | 100 | – | – | – | – | –
Fc1ccc(OCc2ccc(C3COC(c4c(F)cccc4F)=N3)cc2)cc1 (stereo not shown) [Compound R2-18] | 88 | 100 | 100 | 96 | 100 | 100 | 70 | 80 | 90 | 85 | –
Fc1cccnc1OCc1ccc(C2COC(c3c(F)cccc3F)=N2)cc1 (stereo not shown) [Compound R2-15] | 60 | 80 | 100 | 70 | 100 | 100 | – | – | – | – | –
Fc1cccc(F)c1C1=NC(c2ccc(CN3CC=CC3)cc2)CO1 (stereo not shown) [Compound R1-6] | 70 | 100 | 100 | 70 | 100 | 100 | – | 50 | 50 | – | –
Fc1cccc(F)c1C1=NC(c2ccc(COc3ccc4ccccc4c3)cc2)CO1 (stereo not shown) [Compound R2-24] | 100 | 100 | 100 | 95 | 100 | 100 | 85 | 100 | 80 | 70 | acaricidal activity compared with etoxazole [1]: higher acaricidal activity than etoxazole; mortality at 0.001 µg/mL ([1]; checked after 4 days): 20%; mortality at 0.01 µg/mL ([1]; checked after 4 days): 50%; mortality at 0.5 µg/mL ([1]; checked after 4 days): 80%; mortality at 0.001 µg/mL ([2]; Tetranychus cinnabarinus, 96 h): 28%; mortality at 0.01 µg/mL ([2]; Tetranychus cinnabarinus, 96 h): 50%; mortality at 0.5 µg/mL ([2]; Tetranychus cinnabarinus, 96 h): 85%
Fc1cccc(F)c1C1=NC(c2ccc(Cn3ccc4cc(Br)ccc43)cc2)CO1 (stereo not shown) [Compound R1-24] | 60 | 100 | 100 | 80 | 100 | 100 | – | – | 40 | – | –
Fc1ccc2c(ccn2Cc2ccc(C3COC(c4c(F)cccc4F)=N3)cc2)c1 (stereo not shown) [Compound R1-22] | 85 | 100 | 100 | 90 | 98 | 100 | 70 | 80 | 85 | 75 | acaricidal activity compared with etoxazole [1]: higher acaricidal activity than etoxazole; mortality at 0.05 µg/mL ([1]; checked after 4 days): 45%; mortality at 0.05 µg/mL ([2]; Tetranychus cinnabarinus, 96 h): 45%
